Reference: article PMC5218480 (PLoS ONE, 2017)

System: MV-4-11 cells
Experiment: Gene expression microarray analysis (Affymetrix PrimeView) and GSEA
Assay type: cell-based, human
Set-up: RFU PODN (11730768_x_at) / Fold change /veh PODN (11730768_x_at) / RFU LINC00158 (11744669_a_at) / Fold change /veh LINC00158 (11744669_a_at) / RFU DUSP10 (11751237_a_at) / Fold change /veh DUSP10 (11751237_a_at) / RFU ID3 (11757404_x_at) / Fold change /veh ID3 (11757404_x_at) / RFU PLEKHG5 (11737974_s_at) / Fold change /veh PLEKHG5 (11737974_s_at) / RFU LRRC4B (11730491_at) / Fold change /veh LRRC4B (11730491_at) / RFU GIMAP4 (11747438_a_at) / Fold change /veh GIMAP4 (11747438_a_at) / RFU KRT8 (11758183_x_at) / Fold change /veh KRT8 (11758183_x_at) / RFU CNN1 (11734310_a_at) / Fold change /veh CNN1 (11734310_a_at) / RFU VPS37D (11726825_at) / Fold change /veh VPS37D (11726825_at) / RFU C10orf10 (11716522_x_at) / Fold change /veh C10orf10 (11716522_x_at) / RFU KIR2DL2 /// KIR2DL4 /// KIR2DL5A /// KIR2DL5B /// KIR2DS1 /// KIR2DS2 /// KIR2DS3 /// KIR2DS4 /// KIR3DL3 /// KIR3DL3 /// KIR3DS1 (11738374_at) / Fold change /veh KIR2DL2 /// KIR2DL4 /// KIR2DL5A /// KIR2DL5B /// KIR2DS1 /// KIR2DS2 /// KIR2DS3 /// KIR2DS4 /// KIR3DL3 /// KIR3DL3 /// KIR3DS1 (11738374_at) / RFU C1QL1 (11718748_at) / Fold change /veh C1QL1 (11718748_at) / RFU TMPRSS4 (11747572_a_at) / Fold change /veh TMPRSS4 (11747572_a_at) / RFU HAMP (11756126_x_at) / Fold change /veh HAMP (11756126_x_at) / RFU RNFT2 (11725882_a_at) / Fold change /veh RNFT2 (11725882_a_at) / RFU NR4A2 (11747474_a_at) / Fold change /veh NR4A2 (11747474_a_at) / RFU ABCC12 (11746883_a_at) / Fold change /veh ABCC12 (11746883_a_at) / RFU TMEM136 (11760407_x_at) / Fold change /veh TMEM136 (11760407_x_at) / RFU CLDN22 /// WWC2 (11732394_at) / Fold change /veh CLDN22 /// WWC2 (11732394_at) / RFU HLA-DPB1 (11760878_x_at) / Fold change /veh HLA-DPB1 (11760878_x_at) / RFU SPINT1 (11716480_a_at) / Fold change /veh SPINT1 (11716480_a_at) / RFU GAP43 (11754022_s_at) / Fold change /veh GAP43 (11754022_s_at) / RFU A4GNT (11735810_at) / Fold change /veh A4GNT (11735810_at) / RFU PRB3 (11715151_x_at) / Fold change /veh PRB3 (11715151_x_at) / RFU TUBB4B (11761932_at) / Fold change /veh TUBB4B (11761932_at) / RFU CAPN14 (11732068_a_at) / Fold change /veh CAPN14 (11732068_a_at) / RFU TMCC2 (11721928_a_at) / Fold change /veh TMCC2 (11721928_a_at) / RFU IRGQ (11745062_a_at) / Fold change /veh IRGQ (11745062_a_at) / RFU FAM174B (11720279_a_at) / Fold change /veh FAM174B (11720279_a_at) / RFU TMPRSS4 (11748680_a_at) / Fold change /veh TMPRSS4 (11748680_a_at) / RFU FAM212B (11763350_a_at) / Fold change /veh FAM212B (11763350_a_at) / RFU PLEKHG5 (11743358_a_at) / Fold change /veh PLEKHG5 (11743358_a_at) / RFU ZSCAN30 (11745921_a_at) / Fold change /veh ZSCAN30 (11745921_a_at) / RFU CMKLR1 (11741424_a_at) / Fold change /veh CMKLR1 (11741424_a_at) / RFU LOC101060620 /// MAPK8IP1 (11723275_at) / Fold change /veh LOC101060620 /// MAPK8IP1 (11723275_at) / RFU SPTSSB (11747773_x_at) / Fold change /veh SPTSSB (11747773_x_at) / RFU PRSS12 (11739890_at) / Fold change /veh PRSS12 (11739890_at) / RFU BIN1 (11741810_x_at) / Fold change /veh BIN1 (11741810_x_at) / RFU WNT11 (11732464_a_at) / Fold change /veh WNT11 (11732464_a_at) / RFU C10orf10 (11716521_a_at) / Fold change /veh C10orf10 (11716521_a_at) / RFU C5orf56 (11738089_at) / Fold change /veh C5orf56 (11738089_at) / RFU CYB561 (11721691_x_at) / Fold change /veh CYB561 (11721691_x_at) / RFU ANKRD19P (11752326_a_at) / Fold change /veh ANKRD19P (11752326_a_at) / RFU OR2T12 /// OR2T33 /// OR2T8 (11738714_s_at) / Fold change /veh OR2T12 /// OR2T33 /// OR2T8 (11738714_s_at) / RFU VCAN (11748164_a_at) / Fold change /veh VCAN (11748164_a_at) / RFU JSRP1 (11732532_at) / Fold change /veh JSRP1 (11732532_at) / RFU KRTAP10-11 (11738290_x_at) / Fold change /veh KRTAP10-11 (11738290_x_at) / RFU MYO3A (11730013_a_at) / Fold change /veh MYO3A (11730013_a_at) / RFU EBF3 (11725865_a_at) / Fold change /veh EBF3 (11725865_a_at) / RFU CAMK2N1 (11719241_x_at) / Fold change /veh CAMK2N1 (11719241_x_at) / RFU C5orf56 (11738088_a_at) / Fold change /veh C5orf56 (11738088_a_at) / RFU OLFML3 (11715873_a_at) / Fold change /veh OLFML3 (11715873_a_at) / RFU LOC100653217 /// NTM (11731650_a_at) / Fold change /veh LOC100653217 /// NTM (11731650_a_at) / RFU MAPK11 (11762145_a_at) / Fold change /veh MAPK11 (11762145_a_at) / RFU FIZ1 (11724087_x_at) / Fold change /veh FIZ1 (11724087_x_at) / RFU OASL (11726364_x_at) / Fold change /veh OASL (11726364_x_at) / RFU SOX15 (11748057_x_at) / Fold change /veh SOX15 (11748057_x_at) / RFU CD79A (11719716_a_at) / Fold change /veh CD79A (11719716_a_at) / RFU HIST1H1D (11736915_at) / Fold change /veh HIST1H1D (11736915_at) / RFU CASKIN2 (11723855_a_at) / Fold change /veh CASKIN2 (11723855_a_at) / RFU LOC730098 (11760151_x_at) / Fold change /veh LOC730098 (11760151_x_at) / RFU OR4N2 (11742367_at) / Fold change /veh OR4N2 (11742367_at) / RFU PRRT2 (11749266_a_at) / Fold change /veh PRRT2 (11749266_a_at) / RFU SNX32 (11753110_a_at) / Fold change /veh SNX32 (11753110_a_at) / RFU CDHR5 (11726645_a_at) / Fold change /veh CDHR5 (11726645_a_at) / RFU RCAN1 (11760418_a_at) / Fold change /veh RCAN1 (11760418_a_at) / RFU FAM167A (11723789_a_at) / Fold change /veh FAM167A (11723789_a_at) / RFU FAM26E (11764081_at) / Fold change /veh FAM26E (11764081_at) / RFU ISYNA1 (11749810_s_at) / Fold change /veh ISYNA1 (11749810_s_at) / RFU ACY1 (11761880_at) / Fold change /veh ACY1 (11761880_at) / RFU 11764098_at / Fold change /veh 11764098_at / RFU SAMD14 (11745864_x_at) / Fold change /veh SAMD14 (11745864_x_at) / RFU NPB (11741838_a_at) / Fold change /veh NPB (11741838_a_at) / RFU TMPRSS6 (11731388_a_at) / Fold change /veh TMPRSS6 (11731388_a_at) / RFU KRTAP10-2 (11738614_at) / Fold change /veh KRTAP10-2 (11738614_at) / RFU ARHGAP8 /// PRR5-ARHGAP8 (11727945_x_at) / Fold change /veh ARHGAP8 /// PRR5-ARHGAP8 (11727945_x_at) / RFU KRTAP5-7 /// NADSYN1 (11734609_at) / Fold change /veh KRTAP5-7 /// NADSYN1 (11734609_at) / RFU RASL12 (11751679_a_at) / Fold change /veh RASL12 (11751679_a_at) / RFU CDKN2B (11736163_a_at) / Fold change /veh CDKN2B (11736163_a_at) / RFU PRF1 (11729649_at) / Fold change /veh PRF1 (11729649_at) / RFU, ZNF638 /// ZNF638-IT1 / Fold change vs veh, ZNF638 /// ZNF638-IT1 / RFU, PANK3 / Fold change vs veh, PANK3 / RFU, SH3YL1 / Fold change vs veh, SH3YL1 / RFU, ZEB2 / Fold change vs veh, ZEB2 / RFU, NRIP1 / Fold change vs veh, NRIP1 / RFU, PTTG1IP / Fold change vs veh, PTTG1IP / RFU, CAPN2 / Fold change vs veh, CAPN2 / RFU, MED14 / Fold change vs veh, MED14 / RFU, SNORA58 / Fold change vs veh, SNORA58 / RFU, C1orf63 / Fold change vs veh, C1orf63 / RFU, LRRFIP1 / Fold change vs veh, LRRFIP1 / RFU, NDUFAF7 / Fold change vs veh, NDUFAF7 / RFU, SLC12A2 / Fold change vs veh, SLC12A2 / RFU, IBTK / Fold change vs veh, IBTK / RFU, ESF1 / Fold change vs veh, ESF1 / Fold change vs veh, TMEM50B / RFU, TAOK1 / Fold change vs veh, TAOK1 / RFU, ACBD3 / Fold change vs veh, ACBD3 / RFU, TMA16 / Fold change vs veh, TMA16 / RFU, RWDD3 / Fold change vs veh, RWDD3 / RFU, BCAT1 / Fold change vs veh, BCAT1 / RFU, EDEM3 / Fold change vs veh, EDEM3 / RFU, TMEM33 / Fold change vs veh, TMEM33 / RFU, WDR75 / Fold change vs veh, WDR75 / RFU, AHCTF1 / Fold change vs veh, AHCTF1 / RFU, TFRC / Fold change vs veh, TFRC / RFU, ZDHHC17 / Fold change vs veh, ZDHHC17 / RFU, NOM1 / Fold change vs veh, NOM1 / RFU, ARL8B / Fold change vs veh, ARL8B / RFU, ZBTB11 / Fold change vs veh, ZBTB11 / RFU, TAMM41 / Fold change vs veh, TAMM41 / RFU, KIAA1704 /// LOC100996395 / Fold change vs veh, KIAA1704 /// LOC100996395 / RFU, ING1 / Fold change vs veh, ING1 / RFU, TRMT61B / Fold change vs veh, TRMT61B / RFU, FUBP3 / Fold change vs veh, FUBP3 / RFU, TP53 / Fold change vs veh, TP53 / RFU, TNKS2 / Fold change vs veh, TNKS2 / RFU, ZFP14 / Fold change vs veh, ZFP14 / RFU, ACTR2 / Fold change vs veh, ACTR2 / RFU, PPP3R1 / Fold change vs veh, PPP3R1 / RFU, PIK3R1 / Fold change vs veh, PIK3R1 / RFU, HNRNPA1 / Fold change vs veh, HNRNPA1 / RFU, RNF170 / Fold change vs veh, RNF170 / RFU, ZNF28 / Fold change vs veh, ZNF28 / RFU, RNGTT / Fold change vs veh, RNGTT / RFU, OGT / Fold change vs veh, OGT / RFU, BRD1 / Fold change vs veh, BRD1 / RFU, MARS / Fold change vs veh, MARS / RFU, ZNF655 / Fold change vs veh, ZNF655 / RFU, FAHD1 / Fold change vs veh, FAHD1 / RFU, BDP1 / Fold change vs veh, BDP1 / RFU, LRRCC1 / Fold change vs veh, LRRCC1 / RFU, ARID1A / Fold change vs veh, ARID1A / RFU, ZNF146 / Fold change vs veh, ZNF146 / RFU, ZNF330 / Fold change vs veh, ZNF330 / RFU, GPN3 / Fold change vs veh, GPN3 / RFU, C9orf123 / Fold change vs veh, C9orf123 / RFU, N4BP2L2 / Fold change vs veh, N4BP2L2 / RFU, ARFIP1 / Fold change vs veh, ARFIP1 / RFU, FAM179B / Fold change vs veh, FAM179B / RFU, BCL10 / Fold change vs veh, BCL10 / RFU, UHRF1BP1L / Fold change vs veh, UHRF1BP1L / RFU, BET1 / Fold change vs veh, BET1 / RFU, CNOT2 / Fold change vs veh, CNOT2 / RFU, ZNF268 / Fold change vs veh, ZNF268 / Fold change vs veh, ZNF507 / RFU, DGCR2 / Fold change vs veh, DGCR2 / RFU, WDSUB1 / Fold change vs veh, WDSUB1 / Fold change vs veh, HSP90B1 /// MIR3652 / RFU, ADSS / Fold change vs veh, ADSS / RFU, GK / Fold change vs veh, GK / RFU, ZNF148 / Fold change vs veh, ZNF148 / RFU, TAF9 / Fold change vs veh, TAF9 / RFU, SLC1A5 / Fold change vs veh, SLC1A5 / RFU, SLMO2 / Fold change vs veh, SLMO2 / RFU, ABCC4 / Fold change vs veh, ABCC4 / RFU, LOC101060439 /// RAP1B / Fold change vs veh, LOC101060439 /// RAP1B / RFU, RFX7 / Fold change vs veh, RFX7 / RFU, GTPBP10 / Fold change vs veh, GTPBP10 / RFU, CNEP1R1 / Fold change vs veh, CNEP1R1 / RFU, BIVM-ERCC5 /// ERCC5 / Fold change vs veh, BIVM-ERCC5 /// ERCC5 / RFU, ILF3 / Fold change vs veh, ILF3 / RFU 11762660_at / Fold change /veh 11762660_at / RFU VCAN (11757783_s_at) / Fold change /veh VCAN (11757783_s_at) / RFU DDX43 (11728927_at) / Fold change /veh DDX43 (11728927_at) / RFU KRT8 (11758188_x_at) / Fold change /veh KRT8 (11758188_x_at) / RFU NKD1 (11759106_at) / Fold change /veh NKD1 (11759106_at) / RFU SRD5A1 (11742802_a_at) / Fold change /veh SRD5A1 (11742802_a_at) / RFU TPSAB1 /// TPSB2 (11721975_s_at) / Fold change /veh TPSAB1 /// TPSB2 (11721975_s_at) / RFU GSTM3 (11746129_a_at) / Fold change /veh GSTM3 (11746129_a_at) / RFU IL23R (11737362_x_at) / Fold change /veh IL23R (11737362_x_at) / RFU TMEM51 (11727254_a_at) / Fold change /veh TMEM51 (11727254_a_at) / RFU PIWIL2 (11732686_x_at) / Fold change /veh PIWIL2 (11732686_x_at) / RFU ORM1 (11744905_x_at) / Fold change /veh ORM1 (11744905_x_at) / RFU CCDC152 (11743942_at) / Fold change /veh CCDC152 (11743942_at) / RFU ECM1 (11717891_a_at) / Fold change /veh ECM1 (11717891_a_at) / RFU IL23R (11748794_a_at) / Fold change /veh IL23R (11748794_a_at) / RFU TNFAIP8L3 (11732012_x_at) / Fold change /veh TNFAIP8L3 (11732012_x_at) / RFU MBOAT4 (11741988_at) / Fold change /veh MBOAT4 (11741988_at) / RFU 11764193_at / Fold change /veh 11764193_at / RFU TMEM53 (11763286_at) / Fold change /veh TMEM53 (11763286_at) / RFU MAGEB2 (11727129_at) / Fold change /veh MAGEB2 (11727129_at) / RFU TMEM200A (11744735_a_at) / Fold change /veh TMEM200A (11744735_a_at) / RFU CCDC152 (11751479_a_at) / Fold change /veh CCDC152 (11751479_a_at) / RFU FAM211A (11726209_a_at) / Fold change /veh FAM211A (11726209_a_at) / RFU RGS16 (11746705_a_at) / Fold change /veh RGS16 (11746705_a_at) / RFU VCAN (11755009_s_at) / Fold change /veh VCAN (11755009_s_at) / RFU RHOB (11743442_s_at) / Fold change /veh RHOB (11743442_s_at) / RFU RGS16 (11720943_a_at) / Fold change /veh RGS16 (11720943_a_at) / RFU RGS16 (11720944_at) / Fold change /veh RGS16 (11720944_at) / RFU, VPS4B / Fold change vs veh, VPS4B / RFU, CREB1 / Fold change vs veh, CREB1 / RFU, DNAJC13 / Fold change vs veh, DNAJC13 / RFU, GNAQ / Fold change vs veh, GNAQ / RFU, CDK5R1 / Fold change vs veh, CDK5R1 / RFU, ZRANB3 / Fold change vs veh, ZRANB3 / RFU, CUL4A / Fold change vs veh, CUL4A / RFU, CCNY / Fold change vs veh, CCNY / RFU, UFL1 / Fold change vs veh, UFL1 / RFU, COG3 / Fold change vs veh, COG3 / RFU, DIAPH2 / Fold change vs veh, DIAPH2 / RFU, SKA2 / Fold change vs veh, SKA2 / RFU, AFF3 / Fold change vs veh, AFF3 / RFU, LMF1 / Fold change vs veh, LMF1 / RFU, IPO11 / Fold change vs veh, IPO11 / RFU, DFFB / Fold change vs veh, DFFB / RFU, FOXP1 / Fold change vs veh, FOXP1 / RFU, CARD8 / Fold change vs veh, CARD8 / RFU, STRN3 / Fold change vs veh, STRN3 / RFU, ADK / Fold change vs veh, ADK / RFU, RASSF2 / Fold change vs veh, RASSF2 / RFU, WIPF1 / Fold change vs veh, WIPF1 / RFU, LARP1B / Fold change vs veh, LARP1B / RFU, RASA1 / Fold change vs veh, RASA1 / RFU, RB1 / Fold change vs veh, RB1 / RFU, PPFIA1 / Fold change vs veh, PPFIA1 / RFU, MAT2A / Fold change vs veh, MAT2A / RFU, CCT5 / Fold change vs veh, CCT5 / RFU, WDR92 / Fold change vs veh, WDR92 / RFU, CUX1 / Fold change vs veh, CUX1 / RFU, TTC7A / Fold change vs veh, TTC7A / RFU, TMEM135 / Fold change vs veh, TMEM135 / RFU, DEPTOR / Fold change vs veh, DEPTOR / RFU, CPM / Fold change vs veh, CPM / RFU, DNAJB6 / Fold change vs veh, DNAJB6 / RFU, CACNA2D3 / Fold change vs veh, CACNA2D3 / RFU, DTX4 / Fold change vs veh, DTX4 / RFU, TFCP2 / Fold change vs veh, TFCP2 / RFU, GMCL1 /// GMCL1P1 / Fold change vs veh, GMCL1 /// GMCL1P1 / RFU, AEBP2 / Fold change vs veh, AEBP2 / RFU, SNHG1 /// SNORD22 /// SNORD25 /// SNORD26 /// SNORD27 /// SNORD28 /// SNORD29 /// SNORD31 / Fold change vs veh, SNHG1 /// SNORD22 /// SNORD25 /// SNORD26 /// SNORD27 /// SNORD28 /// SNORD29 /// SNORD31 / Fold change (Aza/veh), C12orf56 (ProbeSet 11735607_a_at) / Fold change (ACY-1035/veh), C12orf56 (ProbeSet 11735607_a_at) / Fold change (Aza/veh), FGFR1OP (ProbeSet 11751329_s_at) / Fold change (ACY-1035/veh), FGFR1OP (ProbeSet 11751329_s_at) / Fold change (Aza/veh), VPS36 (ProbeSet 11739960_a_at) / Fold change (ACY-1035/veh), VPS36 (ProbeSet 11739960_a_at) / RFU SYPL1 (11715823_x_at) / Fold change /veh SYPL1 (11715823_x_at) / RFU IGFBP7 (11715501_s_at) / Fold change /veh IGFBP7 (11715501_s_at) / RFU REEP3 (11722064_at) / Fold change /veh REEP3 (11722064_at) / RFU IGLL1 (11728026_x_at) / Fold change /veh IGLL1 (11728026_x_at): dose or concentration left out as unconfirmed
Conditions: MV-4-11 cells, 48 hours

Compound: Nc1ccc(-c2cccs2)cc1NC(=O)c1ccc2c(c1)cc(C1CC1)n2CCN1CCOCC1 [ACY-1035]
- Fold change /veh 11764193_at: 1.19
